# In patent US9133183B2, “Imidazolidinones and analogs exhibiting anti-cancer and anti-proliferative activities” (Deciphera Pharmaceuticals, LLC, priority 2013, dated 2015):
# pIC50: −log10 of the molar value. Like-named read-outs stand apart in the source and are kept apart here.
# How the values were obtained:
# [1] = target: unphosphorylated c-FMS kinase (uFMS, Seq. ID no. 1) (Homo sapiens (Human), UniProt P07333); experiment: uFMS kinase assay (ADP production coupled to pyruvate kinase/lactate dehydrogenase); format: biochemical
# Sequence of unphosphorylated c-FMS kinase (uFMS, Seq. ID no. 1) (P07333 538-972): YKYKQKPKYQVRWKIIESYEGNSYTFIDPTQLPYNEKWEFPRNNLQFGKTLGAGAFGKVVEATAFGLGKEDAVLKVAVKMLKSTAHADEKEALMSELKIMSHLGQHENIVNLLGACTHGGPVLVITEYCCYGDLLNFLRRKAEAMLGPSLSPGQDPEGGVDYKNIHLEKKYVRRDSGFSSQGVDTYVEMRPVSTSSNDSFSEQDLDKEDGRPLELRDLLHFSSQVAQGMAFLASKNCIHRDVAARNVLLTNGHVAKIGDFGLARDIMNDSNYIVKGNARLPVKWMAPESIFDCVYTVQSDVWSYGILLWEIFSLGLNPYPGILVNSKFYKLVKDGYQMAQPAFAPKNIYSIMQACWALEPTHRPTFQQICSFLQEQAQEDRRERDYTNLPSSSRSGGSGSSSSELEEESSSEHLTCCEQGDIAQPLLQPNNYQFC
# In short: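 Unphosphorylated FMS (10 nM) with polyE4Y 1 mg/mL and 500 μM ATP in 90 mM Tris pH 7.5, 10 mM MgCl2, 0.2% octyl-glucoside, 1% DMSO. ADP formation was coupled via pyruvate kinase/LDH to NADH oxidation, followed at A340 for 4 h at 30° C.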
# [2] = target: unphosphorylated PDGFRβ kinase (uPDGFRβ, Seq. ID No. 3) (Homo sapiens (Human), UniProt P09619); experiment: Unphosphorylated PDGFRβ kinase assay (coupled pyruvate kinase/lactate dehydrogenase); format: biochemical; conditions: enzymatic assay, ATP 500 μM
# Sequence of unphosphorylated PDGFRβ kinase (uPDGFRβ, Seq. ID No. 3) (P09619 557-1106): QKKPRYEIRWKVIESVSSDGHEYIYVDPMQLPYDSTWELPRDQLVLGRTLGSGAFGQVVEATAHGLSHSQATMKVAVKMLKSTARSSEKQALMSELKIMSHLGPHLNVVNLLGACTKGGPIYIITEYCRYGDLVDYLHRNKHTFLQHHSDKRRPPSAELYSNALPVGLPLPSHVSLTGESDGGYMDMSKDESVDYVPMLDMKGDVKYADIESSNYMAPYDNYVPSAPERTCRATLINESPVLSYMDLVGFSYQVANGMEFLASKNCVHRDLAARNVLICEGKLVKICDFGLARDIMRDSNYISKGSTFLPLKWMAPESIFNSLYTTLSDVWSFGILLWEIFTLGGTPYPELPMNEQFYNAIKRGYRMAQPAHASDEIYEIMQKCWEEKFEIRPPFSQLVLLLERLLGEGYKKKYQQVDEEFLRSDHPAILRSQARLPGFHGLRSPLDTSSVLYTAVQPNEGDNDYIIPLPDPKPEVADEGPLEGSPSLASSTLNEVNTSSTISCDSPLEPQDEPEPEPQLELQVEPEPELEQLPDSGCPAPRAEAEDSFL
# In short: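 Construct residues 557-1106, unphosphorylated, 15.7 nM, with poly E4Y 2.5 mg/mL and 500 μM ATP, Tris pH 7.5, 1% DMSO, 30 °C. ADP coupled to NADH oxidation via PK/LDH, A340 followed 4 h; rate from 1.5-2.5 h versus no-compound control, IC50 from percent-inhibition series.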
# [3] = tested on: osteoclast precursors; experiment: Osteoclast tartrate-resistant acid phosphatase assay; format: cell-based; conditions: Osteoclast, 7-14 days, RANKL and M-CSF
# [4] = target: c-FMS kinase in THP-1 cells (Homo sapiens (Human), UniProt P07333); experiment: Phospho-FMS ELISA assay in THP-1 cells; format: cell-based; conditions: 4 h compound, M-CSF stimulation 5 min; read-out: pFMS inhibition in THP-1 cells
# Sequence of c-FMS kinase in THP-1 cells (P07333 20-972): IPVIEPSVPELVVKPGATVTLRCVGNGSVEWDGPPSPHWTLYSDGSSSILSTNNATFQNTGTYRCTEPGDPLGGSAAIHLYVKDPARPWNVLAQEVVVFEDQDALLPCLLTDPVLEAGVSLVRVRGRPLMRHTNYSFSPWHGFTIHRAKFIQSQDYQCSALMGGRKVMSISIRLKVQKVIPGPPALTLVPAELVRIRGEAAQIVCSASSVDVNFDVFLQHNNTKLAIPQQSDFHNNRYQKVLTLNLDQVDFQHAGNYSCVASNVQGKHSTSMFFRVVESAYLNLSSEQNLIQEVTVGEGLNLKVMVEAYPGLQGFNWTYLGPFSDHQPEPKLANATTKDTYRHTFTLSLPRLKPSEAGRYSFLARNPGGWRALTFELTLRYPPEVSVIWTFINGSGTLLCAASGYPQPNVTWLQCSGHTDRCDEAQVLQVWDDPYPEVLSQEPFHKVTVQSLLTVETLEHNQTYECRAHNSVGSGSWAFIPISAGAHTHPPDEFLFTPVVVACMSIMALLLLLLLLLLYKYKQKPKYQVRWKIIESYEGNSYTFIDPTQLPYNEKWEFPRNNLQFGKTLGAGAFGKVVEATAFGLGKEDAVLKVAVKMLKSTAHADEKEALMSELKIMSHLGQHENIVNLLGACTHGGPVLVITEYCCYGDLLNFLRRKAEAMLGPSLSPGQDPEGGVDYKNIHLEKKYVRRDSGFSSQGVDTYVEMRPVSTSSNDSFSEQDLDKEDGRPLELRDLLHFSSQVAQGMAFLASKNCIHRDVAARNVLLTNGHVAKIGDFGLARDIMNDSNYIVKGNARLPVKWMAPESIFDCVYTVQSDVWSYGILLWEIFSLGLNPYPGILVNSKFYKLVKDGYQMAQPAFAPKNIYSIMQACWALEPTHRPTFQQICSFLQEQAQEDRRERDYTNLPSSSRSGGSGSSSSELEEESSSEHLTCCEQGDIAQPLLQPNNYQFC
# Protocol: THP-1 cells (catalog #TIB-202) were obtained from the ATCC. Briefly, cells were grown in RPMI 1640 supplemented with 10% characterized fetal bovine serum, 1% sodium pyruvate, 1% Penicillin-Streptomycin-Glutamine (PSG) and 55 uM 2-mercaptoethanol (Invitrogen, Carlsbad, Calif.) at 37 degrees Celsius, 5% CO2, 95% humidity. Cells were allowed to expand until reaching 70-95% confluency at which point they were subcultured or harvested for assay use.
# A serial dilution of test compound was diluted 1:100 in assay medium (RPMI 1640 supplemented with 10% characterized fetal bovine serum) in a 96 well black clear bottom plate (Corning, Corning, N.Y.). In a separate 96 well black clear bottom plate, one hundred and fifty thousand THP-1 cells were added per well in 100 μL in assay medium. Fifty microliters of diluted compound was then added to the cells. Plates were incubated for 4 hours at 37 degrees Celsius, 5% CO2, 95% humidity. At the end of the incubation period, cells were stimulated with 50 μL of a 100 nM solution of recombinant human M-CSF (catalog #216-MC, R & D Systems, Minneapolis, Minn.) in assay medium and the plate was incubated for 5 minutes at 37 degrees Celsius, 5% CO2, 95% humidity. Lysates were prepared and used to perform the phospho-FMS ELISA as described by the manufacturer (catalog #DYC3268, R & D Systems, Minneapolis, Minn.). GraphPad Prism was used to calculate IC50 values obtained from data generated from the ELISA assay.
# [5] = enzymatic assay, ATP 500 μM, read-out: uFMS
SMILES,"pIC50 [1, 5]",pIC50 [2],pIC50 [3],pIC50 [4],"pIC50 ([1]; Table 4, read-out: c-FMS IC50)"
"CCc1nc(NC(=O)N2CCN(C3CC3)C2=O)ccc1Oc1ccnc(-c2cnn(C)c2)c1 [Example 58, 3-cyclopropyl-N-(6-ethyl-5-((2-(1-methyl-1H-pyrazol-4-yl)pyridin-4-yl)oxy)pyridin-2-yl)-2-oxoimidazolidine-1-carboxamide]",7.00 to 8.00,< 6.00,7.00 to 8.00,7.00 to 8.00,–
"[2H]C([2H])([2H])n1cc(-c2cc(Oc3ccc(NC(=O)N4CCN(CCOC)C4=O)nc3C)ccn2)cn1 [Example 39, 3-(2-methoxyethyl)-N-(6-methyl-5-((2-(1-(trideuteromethyl)-1H-pyrazol-4-yl)pyridin-4-yl)oxy)pyridin-2-yl)-2-oxoimidazolidine-1-carboxamide]",7.00 to 8.00,< 6.00,7.00 to 8.00,7.00 to 8.00,–
"CCN1CCN(C(=O)Nc2ccc(Oc3ccnc(-c4ccnc(C)c4)c3)c(C)n2)C1=O [Example 118, 3-ethyl-N-(6-methyl-5-((2′-methyl-[2,4′-bipyridin]-4-yl)oxy)pyridin-2-yl)-2-oxoimidazolidine-1-carboxamide]",7.00 to 8.00,< 6.00,7.00 to 8.00,7.00 to 8.00,–
"Cc1ccc(-c2cc(Oc3ccc(NC(=O)N4CCN(C5CCOCC5)C4=O)nc3)ccn2)cn1 [Example 52, N-(5-((6′-methyl-[2,3′-bipyridin]-4-yl)oxy)pyridin-2-yl)-2-oxo-3-(tetrahydro-2H-pyran-4-yl)imidazolidine-1-carboxamide]",7.00 to 8.00,6.00 to 7.00,7.00 to 8.00,6.00 to 7.00,–
"Cc1nc(NC(=O)N2CCN(C3CCCC3)C2=O)ccc1Oc1ccnc(-c2cnn(C)c2)c1 [Example 29, 3-cyclopentyl-N-(6-methyl-5-((2-(1-methyl-1H-pyrazol-4-yl)pyridin-4-yl)oxy)pyridin-2-yl)-2-oxoimidazolidine-1-carboxamide]",> 8.00,< 6.00,> 8.00,7.00 to 8.00,8.70
"CCc1nc(NC(=O)N2CCN(C3CCOCC3)C2=O)ccc1Oc1ccnc(-c2cnn(C)c2)c1 [Example 49, N-(6-ethyl-5-((2-(1-methyl-1H-pyrazol-4-yl)pyridin-4-yl)oxy)pyridin-2-yl)-2-oxo-3-(tetrahydro-2H-pyran-4-yl)imidazolidine-1-carboxamide]",7.00 to 8.00,< 6.00,7.00 to 8.00,6.00 to 7.00,–
"COCCCN1CCN(C(=O)Nc2ccc(Oc3ccnc(-c4cnn(C)c4)c3)cn2)C1=O [Example 11, 3-(3-methoxypropyl)-N-(5-((2-(1-methyl-1H-pyrazol-4-yl)pyridin-4-yl)oxy)pyridin-2-yl)-2-oxoimidazolidine-1-carboxamide]",7.00 to 8.00,< 6.00,> 8.00,7.00 to 8.00,–
"Cn1cc(-c2cc(Oc3ccc(NC(=O)N4CCN(C5CCOC5)C4=O)nc3)ccn2)cn1 (stereo in doubt) [Example 12, (S)—N-(5-((2-(1-methyl-1H-pyrazol-4-yl)pyridin-4-yl)oxy)pyridin-2-yl)-2-oxo-3-(tetrahydrofuran-3-yl)imidazolidine-1-carboxamide]",7.00 to 8.00,< 6.00,> 8.00,7.00 to 8.00,–
"Cc1nc(NC(=O)N2CCN(CC(F)(F)F)C2=O)ccc1Oc1ccnc(-c2cnn(C)c2)c1 [Example 43, N-(6-methyl-5-((2-(1-methyl-1H-pyrazol-4-yl)pyridin-4-yl)oxy)pyridin-2-yl)-2-oxo-3-(2,2,2-trifluoroethyl)imidazolidine-1-carboxamide]",> 8.00,< 6.00,> 8.00,7.00 to 8.00,–
"CCN1CCN(C(=O)Nc2cc(C)c(Oc3ccnc(-n4cnc(C)c4)c3)cn2)C1=O [Example 88, 3-ethyl-N-(4-methyl-5-((2-(4-methyl-1H-imidazol-1-yl)pyridin-4-yl)oxy)pyridin-2-yl)-2-oxoimidazolidine-1-carboxamide]",7.00 to 8.00,< 6.00,7.00 to 8.00,7.00 to 8.00,–
"COCCN1CCN(C(=O)Nc2ccc(Oc3ccnc(-c4cnn(C)c4)c3)c(C)n2)C1=O [Example 18, 3-(2-methoxyethyl)-N-(6-methyl-5-((2-(1-methyl-1H-pyrazol-4-yl)pyridin-4-yl)oxy)pyridin-2-yl)-2-oxoimidazolidine-1-carboxamide]",7.00 to 8.00,< 6.00,7.00 to 8.00,7.00 to 8.00,7.70
"COCCCN1CCN(C(=O)Nc2ccc(Oc3ccnc(-c4cnn(C)c4)c3)c(C)n2)C1=O [Example 19, 3-(3-methoxypropyl)-N-(6-methyl-5-((2-(1-methyl-1H-pyrazol-4-yl)pyridin-4-yl)oxy)pyridin-2-yl)-2-oxoimidazolidine-1-carboxamide]",7.00 to 8.00,< 6.00,7.00 to 8.00,7.00 to 8.00,–
"Cc1nc(NC(=O)N2CCN(C3COC3)C2=O)ccc1Oc1ccnc(-c2cnn(C)c2)c1 [Example 20, N-(6-methyl-5-((2-(1-methyl-1H-pyrazol-4-yl)pyridin-4-yl)oxy)pyridin-2-yl)-3-(oxetan-3-yl)-2-oxoimidazolidine-1-carboxamide]",7.00 to 8.00,< 6.00,7.00 to 8.00,7.00 to 8.00,–
"CCc1nc(NC(=O)N2CCN(CC(F)(F)F)C2=O)ccc1Oc1ccnc(-c2cnn(C)c2)c1 [Example 56, N-(6-ethyl-5-((2-(1-methyl-1H-pyrazol-4-yl)pyridin-4-yl)oxy)pyridin-2-yl)-2-oxo-3-(2,2,2-trifluoroethyl)imidazolidine-1-carboxamide]",7.00 to 8.00,< 6.00,6.00 to 7.00,6.00 to 7.00,–

# Further lines, with some results ahead:
"pIC50 [1, 5]",pIC50 [2],pIC50 [3],pIC50 [4],SMILES,"pIC50 ([1]; Table 4, read-out: c-FMS IC50)"
> 8.00,7.00 to 8.00,> 8.00,7.00 to 8.00,"Cn1cc(-c2cc(Oc3ccc(NC(=O)N4CCN(C5CCC(F)(F)CC5)C4=O)nc3)ccn2)cn1 [Example 25, 3-(4,4-difluorocyclohexyl)-N-(5-((2-(1-methyl-1H-pyrazol-4-yl)pyridin-4-yl)oxy)pyridin-2-yl)-2-oxoimidazolidine-1-carboxamide]",–
> 8.00,< 6.00,> 8.00,> 8.00,"CCN1CCN(C(=O)Nc2ccc(Oc3ccnc(-c4ccc(C5CCN(C)CC5)cc4)c3)c(C)n2)C1=O [Example 61, 3-ethyl-N-(6-methyl-5-((2-(4-(1-methylpiperidin-4-yl)phenyl)pyridin-4-yl)oxy)pyridin-2-yl)-2-oxoimidazolidine-1-carboxamide]",–
> 8.00,< 6.00,7.00 to 8.00,7.00 to 8.00,"Cc1nc(NC(=O)N2CCN(C3CCC(F)(F)CC3)C2=O)ccc1Oc1ccnc(-c2cnn(C)c2)c1 [Example 26, 3-(4,4-difluorocyclohexyl)-N-(6-methyl-5-((2-(1-methyl-1H-pyrazol-4-yl)pyridin-4-yl)oxy)pyridin-2-yl)-2-oxoimidazolidine-1-carboxamide]",–
> 8.00,< 6.00,7.00 to 8.00,7.00 to 8.00,"CCc1nc(NC(=O)N2CCN(C3CCCC3)C2=O)ccc1Oc1ccnc(-c2cnn(C)c2)c1 [Example 57, 3-cyclopentyl-N-(6-ethyl-5-((2-(1-methyl-1H-pyrazol-4-yl)pyridin-4-yl)oxy)pyridin-2-yl)-2-oxoimidazolidine-1-carboxamide]",–
> 8.00,6.00 to 7.00,> 8.00,7.00 to 8.00,"COC[C@H](C)N1CCN(C(=O)Nc2ccc(Oc3ccnc(-c4cnn(C)c4)c3)cn2)C1=O [Example 16, (S)-3-(1-methoxypropan-2-yl)-N-(5-((2-(1-methyl-11H-pyrazol-4-yl)pyridin-4-yl)oxy)pyridin-2-yl)-2-oxoimidazolidine-1-carboxamide]",–
> 8.00,< 6.00,7.00 to 8.00,7.00 to 8.00,"Cc1nc(NC(=O)N2CCN(C3CCOCC3)C2=O)ccc1Oc1ccnc(-c2cnn(C)c2)c1 [Example 3, N-(6-methyl-5-((2-(1-methyl-1H-pyrazol-4-yl)pyridin-4-yl)oxy)pyridin-2-yl)-2-oxo-3-(tetrahydro-2H-pyran-4-yl)imidazolidine-1-carboxamide]",–
